# According to the supplement of paper PMC10307832:
# Tests used:
# Test in all cases: relative viability (nuclei count vs DMSO), 5 days (fraction); higher = more cells survive
# [1] = compound: O=C(O)C(Cc1ccccc1[N+](=O)[O-])=NNc1nc(-c2ccc(Cl)c(Cl)c2)cs1 (mixture of isomers) [4EGI-1] + Nc1nc2[nH]cc(CCc3ccc(C(=O)N[C@@H](CCC(=O)O)C(=O)O)cc3)c2c(=O)[nH]1 [Pemetrexed] (partner 0.2 µM)
# In short: (§1)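 Lung cancer cell lines were pin-tool dosed in 1536-well plates on the day after seeding, with either a lone drug or a fixed anchor-drug dose plus five library-drug doses (not always all listed) in √10 steps. Nuclei were counted on 4× images after 5 days. Relative viability is the ratio of treated-well to vehicle-well nuclei counts, with each value a median of duplicate plates.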
# [2] = compound: O=C(O)C(Cc1ccccc1[N+](=O)[O-])=NNc1nc(-c2ccc(Cl)c(Cl)c2)cs1 (mixture of isomers) [4EGI-1] + O=C(c1cc(Cc2n[nH]c(=O)c3ccccc23)ccc1F)N1CCN(C(=O)C2CC2)CC1 [Olaparib] (partner 8 µM)
# In short: as §1
# [3] = compound: CN1CCN(CC1)C2=CC(=C(C=C2)NC3=NC=C4C(=N3)N(C5=CC=CC=C5C(=O)N4C)C)OC [XMD8-85] + C[C@]1(O)C[C@@H](c2nc(-c3ccc4ccc(-c5ccccc5)nc4c3)c3c(N)nccn32)C1 [Linsitinib] (partner 1 µM)
# In short: as §1
# [4] = compound: O=C(O)C(Cc1ccccc1[N+](=O)[O-])=NNc1nc(-c2ccc(Cl)c(Cl)c2)cs1 (mixture of isomers) [4EGI-1] + C[C@@H](Oc1cc(-c2cnn(C3CCNCC3)c2)cnc1N)c1c(Cl)ccc(F)c1Cl [Crizotinib] (partner 1 µM)
# In short: as §1
Cell Line,relative viability ([1]; first compound 0.5 µM),relative viability ([1]; first compound 1.581 µM),relative viability ([1]; first compound 5 µM),relative viability ([1]; first compound 15.81 µM),relative viability ([1]; first compound 50 µM),relative viability ([2]; first compound 0.5 µM),relative viability ([2]; first compound 1.581 µM),relative viability ([2]; first compound 5 µM),relative viability ([2]; first compound 15.81 µM),relative viability ([2]; first compound 50 µM),relative viability ([3]; first compound 0.08 µM),relative viability ([3]; first compound 0.253 µM),relative viability ([3]; first compound 0.8 µM),relative viability ([3]; first compound 2.53 µM),relative viability ([3]; first compound 8 µM),relative viability ([4]; first compound 0.5 µM),relative viability ([4]; first compound 1.581 µM),relative viability ([4]; first compound 5 µM),relative viability ([4]; first compound 15.81 µM),relative viability ([4]; first compound 50 µM)
NCI-H522,0.948,0.981,1.07,1.06,0.718,0.694,0.776,0.617,0.574,0.471,–,–,–,–,–,–,–,–,–,–
NCI-H727,–,–,–,–,–,0.638,0.679,0.717,0.496,0.592,0.259,0.314,0.308,0.231,0.215,1.7,0.926,0.716,0.588,0.343
NCI-H1299,–,–,–,–,–,1.01,0.95,0.942,0.863,0.317,0.881,1.06,0.973,0.981,0.654,0.98,1,0.914,0.973,0.386
NCI-H1395,0.878,–,1.12,0.917,0.421,0.492,–,0.47,0.457,0.394,0.792,1.09,1.35,1.01,1.08,–,–,–,–,–
NCI-H1563,0.905,0.221,0.968,0.747,0.81,–,–,–,–,–,1.2,1.26,1.13,1.27,0.844,0.905,0.742,0.857,0.81,0.627
NCI-H1648,0.728,0.782,0.745,0.643,0.689,0.742,0.79,0.965,0.566,0.48,–,–,–,–,–,–,–,–,–,–
NCI-H1650,0.369,–,0.412,0.356,0.313,0.757,–,0.803,0.537,0.214,–,–,–,–,–,1.03,–,0.888,0.547,0.246
NCI-H1703,–,–,–,–,–,0.601,0.46,0.409,0.52,0.331,0.496,1.1,–,0.773,0.641,0.754,0.597,0.681,0.521,0.269
NCI-H1793,1.09,0.905,1.1,0.659,0.304,1.02,1.16,1.13,0.504,0.234,0.78,0.703,1.04,0.976,0.907,–,–,–,–,–
NCI-H2170,0.259,0.256,0.247,0.256,0.265,0.625,0.541,0.567,0.36,0.189,–,–,–,–,–,1.24,1.15,1.15,0.902,0.586
NCI-H2342,0.884,0.723,0.813,0.978,0.702,0.472,0.429,0.43,0.569,0.51,–,–,–,–,–,–,–,–,–,–
SW 900,0.496,0.513,0.485,0.405,0.136,0.923,0.812,0.936,0.552,0.23,–,–,–,–,–,–,–,–,–,–
